{"source": "paper PMC5790467", "about": "“Enhanced anti-tumor efficacy and mechanisms associated with docetaxel-piperine combination- in vitro and in vivo investigation using a taxane-resistant prostate cancer model” (Oncotarget, 2017)", "key": {"[1]": {"tested_on": "PC3-TxR tumor xenografts", "assay": "Tumor growth in mice with PC3-TxR (taxane-resistant) tumor xenografts", "type": "in vivo, ICR-NOD/SCID mice", "details": "TxR tumor xenografts; two weeks after drug administration; DTX 20 mg/kg once a week i.v., PIP 50 mg/kg daily p.o.", "method": "The following experimental protocol was adopted after approval by the Animal Research Ethics Committee at the Chinese University of Hong Kong. PC3 and PC3-TxR cells were cultured in RPMI 1640 medium containing 10% FBS and 1% penicillin-streptomycin in a humidified atmosphere of 5% CO2 at 37°C. PC3 and PC3-TxR cell pellets were re-suspended in serum free RPMI1640 and diluted by Matrigel™ Basement Membrane Matrix (BD Biosciences, Bedford, MA, USA) to the density of 3.33 × 10^6cells/ml. Male ICR-NOD/SCID mice (Laboratory Animal Services Center at the Chinese University of Hong Kong) weighing 25 to 30 g (age 6–8 weeks) was anesthetized with an intraperitoneal injection of a cocktail containing 87 mg/kg ketamine and 8.7 mg/kg xylazine (diluted with saline and the injection volume was about 0.1 ml). The cell suspension was injected subcutaneously to both the left and right flank region. The tumors were allowed to grow for about 2 weeks. Tumor volumes were measured twice per week (tumor volume = [(W^2 × L)/2], where W is the tumor measurement at the widest point, and L is the tumor dimension at the longest point). When the tumors reach about 100 mm^3, treatment was started and the date was designated as Day 0."}, "[2]": {"tested_on": "CYPs (hepatic metabolism of DTX)", "assay": "In vitro inhibition of hepatic metabolism of DTX in mouse liver microsomes", "type": "in vitro ADME, ICR mice", "details": "ICR, pH 7.4, probe DTX (docetaxel) 2 μM", "method": "Livers of ICR-NOD/SCID mice administrated with vehicle control or PIP were collected for the ex vivo metabolism study. In vitro metabolic reactions were performed in blank ICR mice liver. Hepatic microsomes were prepared according to the method of Hill. The system of enzymatic incubation was conducted based on the condition reported by Mooiman et al. with minor modification. […] Drug mixture was pre-incubated with mice liver microsome at 0.5 mg/ml in 50 mM phosphate buffer (pH7.4) containing 2.6 mM of NADP^+, 7.1 mM of glucose-6-phosphate and 6.5 mM of magnesium chloride for 15 min. The reaction was initiated by the addition of glucose-6-phosphate dehydrogenase at 0.8 U/ml. After incubation for 60 min, the reaction was terminated by the addition of 200 µl of ice-cold acetonitrile/methanol (50:50, v/v) containing glibenclamide at 100 ng/ml. The mixture was centrifuged at 13000 rpm for 10 min and the supernatant was injected into LC/MS/MS for analysis."}}}
{"smiles": "O=C(/C=C/C=C/c1ccc2c(c1)OCO2)N1CCCCC1", "note": "[PIP, 1-piperoyl piperidine]", "values": [{"measurement": "percentage of tumor size increase", "setting": "[1]", "result": 196, "unit": "%"}, {"measurement": "IC50 at 60 min", "setting": "[2]", "result": 37.3, "unit": "µM"}]}
